pIC50: −log10 of the molar value. Where a name gives a salt, the structure may show the parent alone.
How the values were obtained:
Test in all cases: cells
Format in all cases: functional, cell-based, Homo sapiens
[1] = system: COLO-800; settings: Homo sapiens, COLO-800;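 further: growth inhibition of COLO-800 cells, read out with a cell viability assay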
Description: SANGER: Inhibition of human COLO-800 cell growth in a cell viability assay.

[2] = system: COLO-829; settings: Homo sapiens, COLO-829
Description: SANGER: Inhibition of human COLO-829 cell growth in a cell viability assay.

[3] = system: CTB-1; settings: Homo sapiens, CTB-1
Description: SANGER: Inhibition of human CTB-1 cell growth in a cell viability assay.

[4] = system: DEL; settings: Homo sapiens, DEL;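 further: growth inhibition of the human DEL cell line, read out with a cell viability assay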
Description: SANGER: Inhibition of human DEL cell growth in a cell viability assay.

[5] = system: DMS-79; settings: Homo sapiens, DMS-79;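 further: growth inhibition measured with a cell viability assay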
Description: SANGER: Inhibition of human DMS-79 cell growth in a cell viability assay.

[6] = system: EC-GI-10; settings: Homo sapiens, EC-GI-10
Description: SANGER: Inhibition of human EC-GI-10 cell growth in a cell viability assay.

[7] = system: ES1; settings: Homo sapiens, ES1;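 further: growth inhibition of ES1 cells, read out with a cell viability assay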
Description: SANGER: Inhibition of human ES1 cell growth in a cell viability assay.

[8] = system: EW-16; settings: Homo sapiens, EW-16;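 further: growth inhibition of human EW-16 cells, read out as cell viability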
Description: SANGER: Inhibition of human EW-16 cell growth in a cell viability assay.

[9] = system: GAK; settings: Homo sapiens, GAK;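 further: cell growth inhibition read out by a cell viability assay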
Description: SANGER: Inhibition of human GAK cell growth in a cell viability assay.

[10] = system: GT3TKB; settings: Homo sapiens, GT3TKB;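 further: growth inhibition of the cell line, read out with a cell viability assay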
Description: SANGER: Inhibition of human GT3TKB cell growth in a cell viability assay.

[11] = system: HEL; settings: Homo sapiens, HEL;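 further: growth inhibition of HEL cells, read out with a cell viability assay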
Description: SANGER: Inhibition of human HEL cell growth in a cell viability assay.

[12] = system: HL-60; settings: Homo sapiens, HL-60;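 further: growth inhibition of human HL-60 cells, read out with a cell viability assay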
Description: SANGER: Inhibition of human HL-60 cell growth in a cell viability assay.

[13] = system: JAR; settings: Homo sapiens, JAR;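 further: growth inhibition of human JAR cells determined with a cell viability assay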
Description: SANGER: Inhibition of human JAR cell growth in a cell viability assay.

[14] = system: K562; settings: Homo sapiens, K562
Description: SANGER: Inhibition of human K-562 cell growth in a cell viability assay.

[15] = system: KARPAS-45; settings: Homo sapiens, KARPAS-45;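 further: inhibition of cell line growth, read out through a viability assay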
Description: SANGER: Inhibition of human KARPAS-45 cell growth in a cell viability assay.

[16] = system: KE-37; settings: Homo sapiens, KE-37;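 further: growth inhibition of KE-37 cells, read out with a cell viability assay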
Description: SANGER: Inhibition of human KE-37 cell growth in a cell viability assay.

[17] = system: KU812 cell line; settings: Homo sapiens, KU812;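 further: growth inhibition of KU812 cells, read out with a cell viability assay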
Description: SANGER: Inhibition of human KU812 cell growth in a cell viability assay.

[18] = system: LAN-6; settings: Homo sapiens, LAN-6;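 further: growth inhibition of LAN-6 cells, determined with a cell viability assay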
Description: SANGER: Inhibition of human LAN-6 cell growth in a cell viability assay.

[19] = system: LB373-MEL-D; settings: Homo sapiens, LB373-MEL-D;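 further: growth inhibition of the cell line, read out in a cell viability assay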
Description: SANGER: Inhibition of human LB373-MEL-D cell growth in a cell viability assay.

[20] = system: LB996-RCC; settings: Homo sapiens, LB996-RCC
Description: SANGER: Inhibition of human LB996-RCC cell growth in a cell viability assay.

[21] = system: LC-2-ad; settings: Homo sapiens, LC-2-ad;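 further: growth inhibition of human LC-2-ad cells, read out with a cell viability assay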
Description: SANGER: Inhibition of human LC-2-ad cell growth in a cell viability assay.

[22] = system: LNCaP-Clone-FGC; settings: Homo sapiens, LNCaP-Clone-FGC
Description: SANGER: Inhibition of human LNCaP-Clone-FGC cell growth in a cell viability assay.

[23] = system: LS-513; settings: Homo sapiens, LS-513
Description: SANGER: Inhibition of human LS-513 cell growth in a cell viability assay.

[24] = system: LU-134-A; settings: Homo sapiens, LU-134-A
Description: SANGER: Inhibition of human LU-134-A cell growth in a cell viability assay.

[25] = system: NCI-H209; settings: Homo sapiens, NCI-H209;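 further: growth inhibition of human NCI-H209 cells, measured by a cell viability assay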
Description: SANGER: Inhibition of human NCI-H209 cell growth in a cell viability assay.

[26] = system: NCI-H226; settings: Homo sapiens, NCI-H226;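 further: cell viability read-out used to gauge growth inhibition of the cells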
Description: SANGER: Inhibition of human NCI-H226 cell growth in a cell viability assay.

[27] = system: NCI-H720; settings: Homo sapiens, NCI-H720;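 further: growth inhibition of human NCI-H720 cells determined by a cell viability assay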
Description: SANGER: Inhibition of human NCI-H720 cell growth in a cell viability assay.

[28] = system: NH-12; settings: Homo sapiens, NH-12;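 further: growth inhibition of NH-12 cells, read out with a cell viability assay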
Description: SANGER: Inhibition of human NH-12 cell growth in a cell viability assay.

[29] = system: NOS-1; settings: Homo sapiens, NOS-1;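 further: growth inhibition of the human NOS-1 cell line, read out with a cell viability assay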
Description: SANGER: Inhibition of human NOS-1 cell growth in a cell viability assay.

[30] = system: NTERA-2-cl-D1; settings: Homo sapiens, NTERA-2-cl-D1;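 further: inhibition of cell growth, measured with a cell viability assay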
Description: SANGER: Inhibition of human NTERA-S-cl-D1 cell growth in a cell viability assay.

[31] = system: P30-OHK; settings: Homo sapiens, P30-OHK;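 further: growth inhibition of the P30-OHK cell line, read out with a cell viability assay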
Description: SANGER: Inhibition of human P30-OHK cell growth in a cell viability assay.

[32] = system: PSN1; settings: Homo sapiens, PSN1;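 further: suppression of growth of human PSN1 cells, read out by a cell viability assay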
Description: SANGER: Inhibition of human PSN1 cell growth in a cell viability assay.

[33] = system: QIMR-WIL; settings: Homo sapiens, QIMR-WIL;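 further: growth inhibition of QIMR-WIL cells, read out with a cell viability assay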
Description: SANGER: Inhibition of human QIMR-WIL cell growth in a cell viability assay.

[34] = system: RH-1; settings: Homo sapiens, RH-1;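 further: growth inhibition of human RH-1 cells, read out with a cell viability assay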
Description: SANGER: Inhibition of human RH-1 cell growth in a cell viability assay.

[35] = system: RPMI-8866; settings: Homo sapiens, RPMI-8866
Description: SANGER: Inhibition of human RPMI-8866 cell growth in a cell viability assay.

[36] = system: SF-126; settings: Homo sapiens, SF-126;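 further: growth inhibition of human SF126 cells, read out with a cell viability assay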
Description: SANGER: Inhibition of human SF126 cell growth in a cell viability assay.

[37] = system: SF-539; settings: Homo sapiens, SF-539;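 further: Read-out is a cell viability assay, with IC50 reflecting inhibition of cell growth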
Description: SANGER: Inhibition of human SF539 cell growth in a cell viability assay.

[38] = system: SK-LMS-1; settings: Homo sapiens, SK-LMS-1;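 further: growth inhibition of human SK-LMS-1 cells, read out with a cell viability assay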
Description: SANGER: Inhibition of human SK-LMS-1 cell growth in a cell viability assay.

[39] = system: SW872; settings: Homo sapiens, SW872;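 further: growth inhibition of SW872 cells, read out by a viability assay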
Description: SANGER: Inhibition of human SW872 cell growth in a cell viability assay.

[40] = system: A388; settings: Homo sapiens, A388;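 further: growth inhibition of human A388 cells, read out with a cell viability assay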
Description: SANGER: Inhibition of human A388 cell growth in a cell viability assay.

[41] = system: A498; settings: Homo sapiens, A498;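 further: growth inhibition of human A498 cells, read out with a cell viability assay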
Description: SANGER: Inhibition of human A498 cell growth in a cell viability assay.

[42] = system: ALL-PO; settings: Homo sapiens, ALL-PO;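 further: growth inhibition of ALL-PO cells, read out by a cell viability assay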
Description: SANGER: Inhibition of human ALL-PO cell growth in a cell viability assay.

[43] = system: ATN-1; settings: Homo sapiens, ATN-1;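 further: growth inhibition of human ATN-1 cells, read out with a cell viability assay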
Description: SANGER: Inhibition of human ATN-1 cell growth in a cell viability assay.

[44] = system: TE-10; settings: Homo sapiens, TE-10;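 further: growth inhibition of TE-10 cells, measured by a cell viability assay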
Description: SANGER: Inhibition of human TE-10 cell growth in a cell viability assay.

[45] = system: TE-5; settings: Homo sapiens, TE-5;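 further: inhibition of cell growth, read out by a cell viability assay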
Description: SANGER: Inhibition of human TE-5 cell growth in a cell viability assay.

[46] = system: TE-8; settings: Homo sapiens, TE-8;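 further: growth inhibition of TE-8 cells, measured with a cell viability readout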
Description: SANGER: Inhibition of human TE-8 cell growth in a cell viability assay.

[47] = system: TGBC1TKB; settings: Homo sapiens, TGBC1TKB;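 further: growth inhibition of TGBC1TKB cells, read out by a cell viability assay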
Description: SANGER: Inhibition of human TGBC1TKB cell growth in a cell viability assay.

[48] = system: CCRF-CEM; settings: Homo sapiens, CCRF-CEM;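 further: inhibition of CCRF-CEM cell growth, measured by a cell viability assay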
Description: SANGER: Inhibition of human CCRF-CEM cell growth in a cell viability assay.

[49] = system: COLO-320-HSR; settings: Homo sapiens, COLO-320-HSR;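 further: growth inhibition of COLO-320-HSR cells, determined with a cell viability assay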
Description: SANGER: Inhibition of human COLO-320-HSR cell growth in a cell viability assay.

O=C(O)c1ccc(-c2c[nH]c3ncc(-c4ccccc4)cc23)cc1C1CCCC1 [GSK-650394]
pIC50 [1]: < 4.80 | pIC50 [2]: < 4.80 | pIC50 [3]: < 4.80 | pIC50 [4]: 5.29 | pIC50 [5]: < 4.80 | pIC50 [6]: < 4.80 | pIC50 [7]: < 4.80 | pIC50 [8]: 5.24 | pIC50 [9]: < 4.80 | pIC50 [10]: < 4.80 | pIC50 [11]: 4.97 | pIC50 [12]: < 4.80 | pIC50 [13]: < 4.80 | pIC50 [14]: < 4.80 | pIC50 [15]: < 4.80 | pIC50 [16]: < 4.80 | pIC50 [17]: 5.66 | pIC50 [18]: < 4.80 | pIC50 [19]: < 4.80 | pIC50 [20]: < 4.80 | pIC50 [21]: < 4.80 | pIC50 [22]: < 4.80 | pIC50 [23]: < 4.80 | pIC50 [24]: 5.18 | pIC50 [25]: < 4.80 | pIC50 [26]: 4.81 | pIC50 [27]: < 4.80 | pIC50 [28]: 4.91 | pIC50 [29]: < 4.80 | pIC50 [30]: 5.45 | pIC50 [31]: 5.21 | pIC50 [32]: 5.66 | pIC50 [33]: 5.06 | pIC50 [34]: 5.11 | pIC50 [35]: < 4.80 | pIC50 [36]: 5.06 | pIC50 [37]: < 4.80 | pIC50 [38]: 5.27 | pIC50 [39]: 4.86 | pIC50 [40]: 5.12 | pIC50 [41]: < 4.80 | pIC50 [42]: 5.24 | pIC50 [43]: < 4.80 | pIC50 [44]: 4.84 | pIC50 [45]: < 4.80 | pIC50 [46]: 5.39 | pIC50 [47]: < 4.80 | pIC50 [48]: < 4.80 | pIC50 [49]: < 4.80

COc1cc2ncn(-c3cc(OCc4ccccc4C(F)(F)F)c(C(N)=O)s3)c2cc1OC [GW843682X]
pIC50 [1]: < 6.59 | pIC50 [2]: < 6.59 | pIC50 [3]: < 6.59 | pIC50 [4]: 7.70 | pIC50 [5]: < 6.59 | pIC50 [6]: < 6.59 | pIC50 [7]: 7.60 | pIC50 [8]: 7.88 | pIC50 [9]: 6.73 | pIC50 [10]: 7.91 | pIC50 [11]: 7.56 | pIC50 [12]: 7.60 | pIC50 [13]: 7.25 | pIC50 [14]: 7.23 | pIC50 [15]: 8.21 | pIC50 [16]: 8.32 | pIC50 [17]: 7.07 | pIC50 [18]: 6.86 | pIC50 [19]: 6.83 | pIC50 [20]: 6.98 | pIC50 [21]: 7.81 | pIC50 [22]: < 6.59 | pIC50 [23]: 6.67 | pIC50 [24]: 6.92 | pIC50 [25]: 6.65 | pIC50 [26]: < 6.59 | pIC50 [27]: < 6.59 | pIC50 [28]: < 6.59 | pIC50 [29]: 7.78 | pIC50 [30]: 7.76 | pIC50 [31]: < 6.59 | pIC50 [32]: 8.23 | pIC50 [33]: 7.37 | pIC50 [34]: 6.62 | pIC50 [35]: < 6.59 | pIC50 [36]: 6.86 | pIC50 [37]: < 6.59 | pIC50 [38]: 7.13 | pIC50 [39]: 7.56 | pIC50 [40]: 7.82 | pIC50 [41]: < 6.59 | pIC50 [42]: 8.06 | pIC50 [43]: 7.62 | pIC50 [44]: 7.90 | pIC50 [45]: 7.63 | pIC50 [46]: 8.23 | pIC50 [47]: 7.47 | pIC50 [48]: 7.83 | pIC50 [49]: 7.55

COC1=CC(c2cc3ccccc3[nH]2)=N/C1=C\c1[nH]c(C)cc1C [OBATOCLAX MESYLATE]
pIC50 [1]: 5.28 | pIC50 [2]: 6.14 | pIC50 [3]: 7.12 | pIC50 [4]: 7.08 | pIC50 [5]: < 4.80 | pIC50 [6]: < 4.80 | pIC50 [7]: 7.31 | pIC50 [8]: 7.41 | pIC50 [9]: > 7.20 | pIC50 [10]: 6.79 | pIC50 [11]: 6.81 | pIC50 [12]: 5.90 | pIC50 [13]: < 4.80 | pIC50 [14]: 5.78 | pIC50 [15]: > 7.20 | pIC50 [16]: > 7.20 | pIC50 [17]: 6.00 | pIC50 [18]: 5.72 | pIC50 [19]: 7.37 | pIC50 [20]: 6.33 | pIC50 [21]: 7.80 | pIC50 [22]: 5.64 | pIC50 [23]: < 4.80 | pIC50 [24]: < 4.80 | pIC50 [25]: 5.43 | pIC50 [26]: 7.18 | pIC50 [27]: < 4.80 | pIC50 [28]: 6.27 | pIC50 [29]: 7.19 | pIC50 [30]: 6.98 | pIC50 [31]: 6.62 | pIC50 [32]: > 7.20 | pIC50 [33]: 6.88 | pIC50 [34]: 6.65 | pIC50 [35]: 6.88 | pIC50 [36]: 6.56 | pIC50 [37]: 6.93 | pIC50 [38]: 6.50 | pIC50 [39]: 6.79 | pIC50 [40]: 7.24 | pIC50 [41]: < 4.80 | pIC50 [42]: 6.62 | pIC50 [43]: 6.78 | pIC50 [44]: 7.02 | pIC50 [45]: 6.32 | pIC50 [46]: 7.01 | pIC50 [47]: 6.21 | pIC50 [48]: 6.11 | pIC50 [49]: 7.28

— ChEMBL document CHEMBL1201861, “Genomics of Drug Sensitity in Cancer screening data, Wellcome Trust Sanger Institute”
